From ChEMBL document CHEMBL3885861, “Open TG-GATES”

Organism: Rattus norvegicus
Experiment: Open TG-GATES - Regimen: Daily Repeat
Format: toxicity, organism-based, Sprague-Dawley
Set-up: regimen Daily Repeat, gender Male, age 6 weeks
Conditions: in vivo, po, 0 mg/kg, route gavage, dose level Control; for APTT / Bas / Eos / Fbg / Hb / Ht / Lym / MCH / MCHC / MCV / Mono / Neu / PT / Plat / RBC / Ret / WBC: tissue Blood; for KIDNEY_L / KIDNEY_R / KIDNEY_TOTAL: tissue Kidney; for LIVER: tissue Liver; for A/G / ALP / ALT / AST / BUN / CRE / Ca / Cl / DBIL / GLC / IP / K / LDH / Na / PL / RALB / TBIL / TC / TG / TP / gamma-GTP: tissue Plasma

CN(C)CCC=C1c2ccccc2CCc2ccccc21 [AMITRIPTYLINE]
TERMINAL_BW (72 h, time 3 day): 226.6 g
APTT (72 h, time 3 day): 14.9 s
Bas (72 h, time 3 day): 0%
Eos (72 h, time 3 day): 1.2%
Fbg (72 h, time 3 day): 287.4 mg/dL
Hb (72 h, time 3 day): 13 g/dL
Ht (72 h, time 3 day): 39.9%
Lym (72 h, time 3 day): 71.4%
MCH (72 h, time 3 day): 21.3 pg
MCHC (72 h, time 3 day): 32.7%
MCV (72 h, time 3 day): 65.1 fL
Mono (72 h, time 3 day): 3.4%
Neu (72 h, time 3 day): 23.4%
PT (72 h, time 3 day): 15.5 s
Plat (72 h, time 3 day): 116.7 x10_4/uL
RBC (72 h, time 3 day): 613.4 x10_4/ul
Ret (72 h, time 3 day): 7.7%
WBC (72 h, time 3 day): 71.8 x10_2/uL
KIDNEY_L (72 h, time 3 day): 0.9 g
KIDNEY_R (72 h, time 3 day): 0.9 g
KIDNEY_TOTAL (72 h, time 3 day): 1.8 g
LIVER (72 h, time 3 day): 10.7 g
A/G (72 h, time 3 day): 0.8
ALP (72 h, time 3 day): 1976.4 IU/L
ALT (72 h, time 3 day): 54.6 IU/L
AST (72 h, time 3 day): 74.2 IU/L
BUN (72 h, time 3 day): 16.4 mg/dL
CRE (72 h, time 3 day): 0.2 mg/dL
Ca (72 h, time 3 day): 11.2 mg/dL
Cl (72 h, time 3 day): 105.6 meq/L
DBIL (72 h, time 3 day): 0.02 mg/dL
GLC (72 h, time 3 day): 179.4 mg/dL
IP (72 h, time 3 day): 7.9 mg/dL
K (72 h, time 3 day): 4.1 meq/L
LDH (72 h, time 3 day): 81 IU/L
Na (72 h, time 3 day): 143.8 meq/L
PL (72 h, time 3 day): 162.2 mg/dL
RALB (72 h, time 3 day): 2.7 g/dL
TBIL (72 h, time 3 day): 0.054 mg/dL
TC (72 h, time 3 day): 83.2 mg/dL
TG (72 h, time 3 day): 121.8 mg/dL
TP (72 h, time 3 day): 5.9 g/dL
gamma-GTP (72 h, time 3 day): 0.6 IU/L
TERMINAL_BW ([…], time 7 day): 259.7 g
TERMINAL_BW ([…], time 14 day): 318.6 g
TERMINAL_BW ([…], time 28 day): 406.1 g
APTT ([…], time 7 day): 16.5 s
Bas ([…], time 7 day): 0.6%
Eos ([…], time 7 day): 1%
Fbg ([…], time 7 day): 302.6 mg/dL
Hb ([…], time 7 day): 13.5 g/dL
Ht ([…], time 7 day): 40.7%
Lym ([…], time 7 day): 78.8%
MCH ([…], time 7 day): 20.8 pg
MCHC ([…], time 7 day): 33.1%
MCV ([…], time 7 day): 62.8 fL
Mono ([…], time 7 day): 2.8%
Neu ([…], time 7 day): 16.4%
PT ([…], time 7 day): 15.2 s
Plat ([…], time 7 day): 109.9 x10_4/uL
RBC ([…], time 7 day): 648.8 x10_4/ul
Ret ([…], time 7 day): 5.7%
WBC ([…], time 7 day): 86.3 x10_2/uL
APTT ([…], time 14 day): 17.3 s
Bas ([…], time 14 day): 0%
Eos ([…], time 14 day): 1%
Fbg ([…], time 14 day): 294.4 mg/dL
Hb ([…], time 14 day): 13.8 g/dL
Ht ([…], time 14 day): 41.5%
Lym ([…], time 14 day): 76.8%
MCH ([…], time 14 day): 20.9 pg
MCHC ([…], time 14 day): 33.3%
MCV ([…], time 14 day): 62.5 fL
Mono ([…], time 14 day): 2.2%
Neu ([…], time 14 day): 19%
PT ([…], time 14 day): 15.6 s
Plat ([…], time 14 day): 127.9 x10_4/uL
RBC ([…], time 14 day): 664.4 x10_4/ul
Ret ([…], time 14 day): 4.7%
WBC ([…], time 14 day): 94.5 x10_2/uL
APTT ([…], time 28 day): 18.5 s
Bas ([…], time 28 day): 0.2%
Eos ([…], time 28 day): 1%
Fbg ([…], time 28 day): 253 mg/dL
Hb ([…], time 28 day): 14.9 g/dL
Ht ([…], time 28 day): 43.8%
Lym ([…], time 28 day): 77.2%
MCH ([…], time 28 day): 19.6 pg
MCHC ([…], time 28 day): 33.9%
MCV ([…], time 28 day): 57.7 fL
Mono ([…], time 28 day): 2.6%
Neu ([…], time 28 day): 18.2%
PT ([…], time 28 day): 16.2 s
Plat ([…], time 28 day): 104.1 x10_4/uL
RBC ([…], time 28 day): 760.8 x10_4/ul
Ret ([…], time 28 day): 2.5%
WBC ([…], time 28 day): 120.5 x10_2/uL
KIDNEY_L ([…], time 7 day): 1 g
KIDNEY_R ([…], time 7 day): 1 g
KIDNEY_TOTAL ([…], time 7 day): 2 g
KIDNEY_L ([…], time 14 day): 1.2 g
KIDNEY_R ([…], time 14 day): 1.2 g
KIDNEY_TOTAL ([…], time 14 day): 2.5 g
KIDNEY_L ([…], time 28 day): 1.4 g
KIDNEY_R ([…], time 28 day): 1.4 g
KIDNEY_TOTAL ([…], time 28 day): 2.8 g
LIVER ([…], time 7 day): 11.9 g
LIVER ([…], time 14 day): 14 g
LIVER ([…], time 28 day): 17 g
A/G ([…], time 7 day): 0.8
ALP ([…], time 7 day): 1482.8 IU/L
ALT ([…], time 7 day): 40.8 IU/L
AST ([…], time 7 day): 64.2 IU/L
BUN ([…], time 7 day): 16 mg/dL
CRE ([…], time 7 day): 0.2 mg/dL
Ca ([…], time 7 day): 10.9 mg/dL
Cl ([…], time 7 day): 106.4 meq/L
DBIL ([…], time 7 day): 0.014 mg/dL
GLC ([…], time 7 day): 185.8 mg/dL
IP ([…], time 7 day): 7.5 mg/dL
K ([…], time 7 day): 3.9 meq/L
LDH ([…], time 7 day): 56.4 IU/L
Na ([…], time 7 day): 143.8 meq/L
PL ([…], time 7 day): 165.8 mg/dL
RALB ([…], time 7 day): 2.6 g/dL
TBIL ([…], time 7 day): 0.052 mg/dL
TC ([…], time 7 day): 81.2 mg/dL
TG ([…], time 7 day): 131.2 mg/dL
TP ([…], time 7 day): 5.8 g/dL
gamma-GTP ([…], time 7 day): 0.6 IU/L
A/G ([…], time 14 day): 0.8
ALP ([…], time 14 day): 1703.4 IU/L
ALT ([…], time 14 day): 41.8 IU/L
AST ([…], time 14 day): 68.6 IU/L
BUN ([…], time 14 day): 17.6 mg/dL
CRE ([…], time 14 day): 0.2 mg/dL
Ca ([…], time 14 day): 10.9 mg/dL
Cl ([…], time 14 day): 106 meq/L
DBIL ([…], time 14 day): 0.024 mg/dL
GLC ([…], time 14 day): 191.8 mg/dL
IP ([…], time 14 day): 6.3 mg/dL
K ([…], time 14 day): 4.3 meq/L
LDH ([…], time 14 day): 70.8 IU/L
Na ([…], time 14 day): 142.4 meq/L
PL ([…], time 14 day): 157 mg/dL
RALB ([…], time 14 day): 2.7 g/dL
TBIL ([…], time 14 day): 0.046 mg/dL
TC ([…], time 14 day): 71.6 mg/dL
TG ([…], time 14 day): 128.8 mg/dL
TP ([…], time 14 day): 6.1 g/dL
gamma-GTP ([…], time 14 day): 0.4 IU/L
A/G ([…], time 28 day): 0.8
ALP ([…], time 28 day): 1151.8 IU/L
ALT ([…], time 28 day): 47.2 IU/L
AST ([…], time 28 day): 83 IU/L
BUN ([…], time 28 day): 17.6 mg/dL
CRE ([…], time 28 day): 0.2 mg/dL
Ca ([…], time 28 day): 10.5 mg/dL
Cl ([…], time 28 day): 104.8 meq/L
DBIL ([…], time 28 day): 0.02 mg/dL
GLC ([…], time 28 day): 198.6 mg/dL
IP ([…], time 28 day): 6.3 mg/dL
K ([…], time 28 day): 3.7 meq/L
LDH ([…], time 28 day): 116.2 IU/L
Na ([…], time 28 day): 143 meq/L
PL ([…], time 28 day): 138 mg/dL
RALB ([…], time 28 day): 2.8 g/dL
TBIL ([…], time 28 day): 0.058 mg/dL
TC ([…], time 28 day): 62 mg/dL
TG ([…], time 28 day): 134.8 mg/dL
TP ([…], time 28 day): 6.2 g/dL
gamma-GTP ([…], time 28 day): 0.4 IU/L
